{
  "source": "patent US11186548B2",
  "about": "(priority 2017, dated 2021)",
  "key": {"[1]": {"assay": "Parallel Artificial Membrane Permeability Assay (PAMPA)", "details": "about 100 μM, five hours, 25° C."}, "human AChE": {"target": "human AChE (Homo sapiens, UniProt P22303)", "sequence (P22303-2 with tags, fused parts or gaps limits assumed)": "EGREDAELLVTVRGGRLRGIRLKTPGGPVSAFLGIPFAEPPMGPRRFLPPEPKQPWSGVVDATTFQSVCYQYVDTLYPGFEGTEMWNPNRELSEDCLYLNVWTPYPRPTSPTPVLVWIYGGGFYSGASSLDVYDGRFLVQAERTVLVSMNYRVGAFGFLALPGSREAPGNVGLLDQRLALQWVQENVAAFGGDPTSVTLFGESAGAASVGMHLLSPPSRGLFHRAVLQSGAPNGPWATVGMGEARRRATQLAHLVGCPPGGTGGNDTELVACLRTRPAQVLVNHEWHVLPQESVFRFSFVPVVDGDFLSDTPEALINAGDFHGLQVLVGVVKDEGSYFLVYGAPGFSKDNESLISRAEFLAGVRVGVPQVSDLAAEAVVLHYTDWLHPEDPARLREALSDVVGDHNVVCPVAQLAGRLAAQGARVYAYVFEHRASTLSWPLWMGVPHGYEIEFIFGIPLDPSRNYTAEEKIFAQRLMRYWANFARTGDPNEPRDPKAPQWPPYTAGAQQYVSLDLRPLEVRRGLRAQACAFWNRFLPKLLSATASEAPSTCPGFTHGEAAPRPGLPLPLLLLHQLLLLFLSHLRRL", "format": "biochemical"}, "[2]": {"assay": "Human plasma stability assay"}, "[3]": {"details": "male, guinea pig, in vivo"}, "hERG channel": {"target": "hERG channel (Homo sapiens, UniProt Q12809)", "sequence (Q12809 whole entry)": "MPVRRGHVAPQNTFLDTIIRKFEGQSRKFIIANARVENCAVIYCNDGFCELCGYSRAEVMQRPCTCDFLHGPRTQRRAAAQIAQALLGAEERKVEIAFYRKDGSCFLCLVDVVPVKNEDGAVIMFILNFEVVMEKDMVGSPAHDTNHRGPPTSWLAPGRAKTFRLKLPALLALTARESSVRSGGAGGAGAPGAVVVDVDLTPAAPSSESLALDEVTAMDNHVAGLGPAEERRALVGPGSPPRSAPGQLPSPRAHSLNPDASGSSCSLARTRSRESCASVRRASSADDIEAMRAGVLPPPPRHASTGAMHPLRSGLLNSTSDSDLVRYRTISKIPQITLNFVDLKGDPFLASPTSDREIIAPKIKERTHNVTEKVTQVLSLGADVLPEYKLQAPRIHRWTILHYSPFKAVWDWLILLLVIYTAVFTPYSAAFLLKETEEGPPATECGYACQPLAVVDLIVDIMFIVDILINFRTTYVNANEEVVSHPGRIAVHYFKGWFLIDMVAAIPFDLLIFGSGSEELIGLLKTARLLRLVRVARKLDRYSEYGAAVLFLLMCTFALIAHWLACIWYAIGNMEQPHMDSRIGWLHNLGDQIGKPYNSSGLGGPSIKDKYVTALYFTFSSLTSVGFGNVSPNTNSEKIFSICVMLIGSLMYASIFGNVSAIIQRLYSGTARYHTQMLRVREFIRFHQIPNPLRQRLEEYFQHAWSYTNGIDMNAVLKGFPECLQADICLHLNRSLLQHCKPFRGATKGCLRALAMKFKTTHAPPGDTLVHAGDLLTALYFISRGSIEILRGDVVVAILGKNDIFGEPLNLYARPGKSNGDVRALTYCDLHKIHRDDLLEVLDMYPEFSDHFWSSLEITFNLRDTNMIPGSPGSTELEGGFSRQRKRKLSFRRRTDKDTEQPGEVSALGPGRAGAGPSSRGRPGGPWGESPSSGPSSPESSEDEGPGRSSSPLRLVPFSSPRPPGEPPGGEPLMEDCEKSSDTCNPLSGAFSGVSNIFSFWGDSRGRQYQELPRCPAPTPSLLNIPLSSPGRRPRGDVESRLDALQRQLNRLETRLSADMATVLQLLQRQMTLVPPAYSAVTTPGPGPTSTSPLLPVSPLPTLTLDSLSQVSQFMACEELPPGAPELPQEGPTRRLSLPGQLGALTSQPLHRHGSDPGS", "assay": "hERG channel patch clamp assay"}, "in vivo [4]": {"assay": "in vivo", "details": "male, guinea pig"}, "[5]": {"assay": "Microsomal stability assay", "details": "microsomes"}, "CYP3A4": {"target": "CYP3A4 (Homo sapiens, UniProt P08684)", "sequence (P08684 whole entry)": "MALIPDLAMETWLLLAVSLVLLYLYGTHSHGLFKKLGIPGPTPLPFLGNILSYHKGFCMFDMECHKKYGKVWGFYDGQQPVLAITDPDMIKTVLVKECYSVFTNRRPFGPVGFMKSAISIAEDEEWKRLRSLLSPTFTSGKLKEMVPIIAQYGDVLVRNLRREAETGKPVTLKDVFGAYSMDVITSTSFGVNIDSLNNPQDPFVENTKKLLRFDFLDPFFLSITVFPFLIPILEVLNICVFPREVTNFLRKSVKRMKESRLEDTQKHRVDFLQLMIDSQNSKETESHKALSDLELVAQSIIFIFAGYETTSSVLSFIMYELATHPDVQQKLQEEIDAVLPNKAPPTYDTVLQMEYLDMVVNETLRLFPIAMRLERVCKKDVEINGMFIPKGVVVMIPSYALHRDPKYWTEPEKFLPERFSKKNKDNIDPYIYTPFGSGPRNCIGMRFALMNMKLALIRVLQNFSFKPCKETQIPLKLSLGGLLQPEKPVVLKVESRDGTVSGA", "assay": "biochemical"}, "in vivo [6]": {"assay": "in vivo", "details": "male, guinea pig, iv"}, "CYP2C19": {"target": "CYP2C19 (Homo sapiens, UniProt P33261)", "sequence (P33261 whole entry)": "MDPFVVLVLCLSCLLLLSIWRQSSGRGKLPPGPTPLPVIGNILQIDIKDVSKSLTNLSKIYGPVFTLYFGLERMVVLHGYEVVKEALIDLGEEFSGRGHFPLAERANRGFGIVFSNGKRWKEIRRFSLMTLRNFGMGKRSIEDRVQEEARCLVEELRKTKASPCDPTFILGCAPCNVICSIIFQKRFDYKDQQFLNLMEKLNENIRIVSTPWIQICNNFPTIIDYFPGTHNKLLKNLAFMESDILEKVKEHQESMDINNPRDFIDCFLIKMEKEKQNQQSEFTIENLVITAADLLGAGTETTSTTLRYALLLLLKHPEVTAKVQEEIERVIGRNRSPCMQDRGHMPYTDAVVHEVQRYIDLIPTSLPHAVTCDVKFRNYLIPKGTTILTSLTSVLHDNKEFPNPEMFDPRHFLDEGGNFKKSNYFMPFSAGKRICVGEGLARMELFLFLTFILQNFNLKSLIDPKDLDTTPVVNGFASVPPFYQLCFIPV", "assay": "Cytochrome P450 inhibition with fluorescent probe substrate"}, "MDR1 (P-gp)": {"target": "MDR1 (P-gp) (Homo sapiens, UniProt P08183)", "sequence (P08183 whole entry)": "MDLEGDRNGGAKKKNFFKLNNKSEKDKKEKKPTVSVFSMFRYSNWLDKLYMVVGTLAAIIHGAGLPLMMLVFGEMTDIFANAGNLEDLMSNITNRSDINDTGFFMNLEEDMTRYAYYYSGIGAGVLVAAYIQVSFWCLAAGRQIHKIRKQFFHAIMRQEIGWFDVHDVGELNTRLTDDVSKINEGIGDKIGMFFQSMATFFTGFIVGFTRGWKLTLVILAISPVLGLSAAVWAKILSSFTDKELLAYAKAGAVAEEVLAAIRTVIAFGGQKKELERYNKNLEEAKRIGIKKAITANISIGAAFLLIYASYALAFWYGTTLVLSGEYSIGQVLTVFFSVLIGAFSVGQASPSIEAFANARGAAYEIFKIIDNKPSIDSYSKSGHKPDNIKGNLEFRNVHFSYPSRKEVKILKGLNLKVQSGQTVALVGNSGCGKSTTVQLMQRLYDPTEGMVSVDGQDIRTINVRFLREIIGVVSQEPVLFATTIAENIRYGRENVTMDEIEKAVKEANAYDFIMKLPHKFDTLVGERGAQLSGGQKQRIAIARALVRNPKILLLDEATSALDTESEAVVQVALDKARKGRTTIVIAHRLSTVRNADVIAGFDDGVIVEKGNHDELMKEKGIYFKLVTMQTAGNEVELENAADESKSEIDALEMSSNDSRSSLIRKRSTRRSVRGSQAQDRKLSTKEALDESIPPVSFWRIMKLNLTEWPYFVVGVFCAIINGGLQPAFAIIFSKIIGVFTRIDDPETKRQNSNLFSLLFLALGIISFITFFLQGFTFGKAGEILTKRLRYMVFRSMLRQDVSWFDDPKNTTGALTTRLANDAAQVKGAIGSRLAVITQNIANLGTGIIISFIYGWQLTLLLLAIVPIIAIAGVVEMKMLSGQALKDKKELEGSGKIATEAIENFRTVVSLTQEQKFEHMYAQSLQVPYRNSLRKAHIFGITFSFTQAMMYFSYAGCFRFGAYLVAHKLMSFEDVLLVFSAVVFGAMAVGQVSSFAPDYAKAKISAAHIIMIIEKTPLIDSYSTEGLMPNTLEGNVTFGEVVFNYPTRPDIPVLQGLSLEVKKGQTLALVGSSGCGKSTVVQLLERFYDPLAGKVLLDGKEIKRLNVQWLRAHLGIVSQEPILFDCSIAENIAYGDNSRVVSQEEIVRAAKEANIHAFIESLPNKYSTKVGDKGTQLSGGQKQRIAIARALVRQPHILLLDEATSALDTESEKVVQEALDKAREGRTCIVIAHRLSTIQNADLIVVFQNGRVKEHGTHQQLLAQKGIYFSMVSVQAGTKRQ", "assay": "MDR1-MDCK efflux assay (net flux ratio)", "details": "37° C., three hours"}, "[7]": {"details": "guinea pig, in vivo; for percentage of the administered dose in the brain / LogBB / brain concentration / plasma concentration: male; for LogBB / brain concentration / plasma concentration: iv"}},
  "note": "“Also recorded” adds a separate entry of the source. Read-outs that look alike come from different tables or passages of the source.",
  "data": [
    {"compound": "C[C@@H](CN1CCCc2ccccc2C1)NC(=O)/C=N/O", "note": "[LLNL-02]", "values": [
      {"measurement": "PAMPA permeability", "setting": "[1]", "value": "high permeability through the BBB; also recorded: high permeability comparable to that of the highly permeable positive control compound, diazepam; also recorded: elevated permeability relative to other selected compounds; also recorded: superior permeation relative to LLNL-03"},
      {"measurement": "fraction of AChE reactivated at 30 minutes, methylated versus des-methyl analog", "setting": "human AChE", "value": "significantly lower reactivation relative to the des-methyl counterpart"},
      {"measurement": "reactivation of adducted AChE relative to the 2-PAM standard of care", "setting": "human AChE", "value": "approximately 40%"},
      {"measurement": "human plasma stability (percent remaining after 1 hour)", "setting": "[2]; human plasma, 1 hour at 37° C.", "value": "over 90%"},
      {"measurement": "degradation in human plasma", "setting": "[2]; one hour", "value": "< 10", "unit": "%"},
      {"measurement": "increase in mean AUC0-t", "setting": "[3]", "value": 2.5, "unit": "fold"},
      {"measurement": "AUC0-t", "setting": "[3]; iv, 10 mg/kg", "value": 28480, "unit": "ng·h/mL"},
      {"measurement": "T½ elim.", "setting": "[3]; iv, 10 mg/kg", "value": 606.6, "unit": "min"},
      {"measurement": "Vd (area)", "setting": "[3]; iv, 10 mg/kg", "value": 6.32268, "unit": "L/kg"},
      {"measurement": "concentration not toxic to the hERG channel", "setting": "hERG channel", "value": "> 10", "unit": "µM"},
      {"measurement": "Cmax", "setting": "in vivo [4]", "value": "1420 to 10000", "unit": "ng/g"},
      {"measurement": "half-life", "setting": "[5]", "value": "> 60", "unit": "min"},
      {"measurement": "microsomal CLint", "setting": "[5]", "value": "< 23", "unit": "µL/min/mg"},
      {"measurement": "IC50", "setting": "CYP3A4", "value": "> 10", "unit": "µM"},
      {"measurement": "half-life", "setting": "in vivo [6]; 1 mg/kg, T½ dist.", "value": 23.4, "unit": "min"},
      {"measurement": "half-life", "setting": "in vivo [6]; 5 mg/kg, T½ dist.", "value": 24, "unit": "min"},
      {"measurement": "AUC(0-inf)", "setting": "in vivo [6]; 10 mg/kg", "value": 73400, "unit": "ng·h/mL"},
      {"measurement": "AUC0-t", "setting": "in vivo [6]; 10 mg/kg, AUC0-t", "value": 28400, "unit": "ng·h/mL"},
      {"measurement": "half-life", "setting": "in vivo [6]; 10 mg/kg, T½ dist.", "value": 15, "unit": "min"},
      {"measurement": "half-life", "setting": "in vivo [6]; 10 mg/kg, T½ elim.", "value": 606, "unit": "min"},
      {"measurement": "Vd", "setting": "in vivo [6]; 10 mg/kg, Vd (area)", "value": 6.32, "unit": "L/kg"},
      {"measurement": "half-life", "setting": "in vivo [6]; 20 mg/kg, T½ dist.", "value": 23.4, "unit": "min"},
      {"measurement": "Vd", "setting": "in vivo [6]; 20 mg/kg, apparent volume of distribution (Vd)", "value": "3.75 to 6.32", "unit": "L/kg"},
      {"measurement": "half-life", "setting": "in vivo [6]; 20 mg/kg, mean apparent distribution half-life (t1/2α)", "value": "15 to 24", "unit": "min"},
      {"measurement": "half-life", "setting": "in vivo [6]; 20 mg/kg, terminal half-life (t1/2 β)", "value": "606 to 1130", "unit": "min"},
      {"measurement": "clearance", "setting": "in vivo [6]; 20 mg/kg, total clearance from plasma (CL)", "value": "2.27 to 5.19", "unit": "mL/min/kg"},
      {"measurement": "IC50", "setting": "CYP2C19", "value": "> 10", "unit": "µM"},
      {"measurement": "MDR1 efflux substrate status from net flux ratio", "setting": "MDR1 (P-gp)", "value": "may be a moderate efflux substrate; also recorded: moderate efflux substate"},
      {"measurement": "time of Cmax in the brain", "setting": "[7]", "value": 5, "unit": "min"},
      {"measurement": "percentage of the administered dose in the brain", "setting": "[7]", "value": "0.3-0.7%"},
      {"measurement": "percentage of the administered dose in the brain", "setting": "[7]; 1 mg/kg", "value": 0.3, "unit": "%"},
      {"measurement": "percentage of the administered dose in the brain", "setting": "[7]; 5 mg/kg", "value": 0.3, "unit": "%"},
      {"measurement": "percentage of the administered dose in the brain", "setting": "[7]; 20 mg/kg", "value": 0.7, "unit": "%"},
      {"measurement": "LogBB", "setting": "[7]; 1 mg/kg", "value": "−0.879"},
      {"measurement": "brain concentration", "setting": "[7]; 1 mg/kg", "value": 0.191, "unit": "µg/g"},
      {"measurement": "plasma concentration", "setting": "[7]; 1 mg/kg", "value": 1.443, "unit": "µg/g"},
      {"measurement": "LogBB", "setting": "[7]; 5 mg/kg", "value": "−0.649"},
      {"measurement": "brain concentration", "setting": "[7]; 5 mg/kg", "value": 1.421, "unit": "µg/g"},
      {"measurement": "plasma concentration", "setting": "[7]; 5 mg/kg", "value": 6.352, "unit": "µg/g"},
      {"measurement": "LogBB", "setting": "[7]; 10 mg/kg", "value": "−0.311"},
      {"measurement": "brain concentration", "setting": "[7]; 10 mg/kg", "value": 5.269, "unit": "µg/g"},
      {"measurement": "plasma concentration", "setting": "[7]; 10 mg/kg", "value": 10.790, "unit": "µg/g"},
      {"measurement": "LogBB", "setting": "[7]; 20 mg/kg", "value": "−0.276"},
      {"measurement": "brain concentration", "setting": "[7]; 20 mg/kg", "value": 10.048, "unit": "µg/g"},
      {"measurement": "plasma concentration", "setting": "[7]; 20 mg/kg", "value": 19.009, "unit": "µg/g"}
    ]}
  ]
}
